In patent US12102659B2, “Methods for the prevention or treatment of heart failure” (Cornell University, priority 2009, dated 2024):

Key:
NADPH oxidase = NADPH oxidase activity in ventricular protein extract after 4 weeks of Ang II; format: in vivo, mouse; settings: 4 weeks Ang II (vs. saline) or Ang II + SS-31 (vs. Ang II)
Procedure: (§1) Mouse experiments, drug delivery, echocardiography and blood pressure measurement. All animal experiments were approved by the University of Washington Institutional Animal Care and Use Committee. C57BL6 mice were housed in a barrier specific pathogen-free facility. Six to ten mice were included in each experimental group (Saline, Ang II, Ang II+SS-31, WT, Gαq, Gαq+SS-31). A pressor dose of Ang II (1.1 mg/kg/d) was continuously administered for 4 weeks using subcutaneous Alzet 1004 osmotic minipumps, with or without addition of SS-31 (3 mg/kg/d). Echocardiography was performed at baseline and after 4 weeks of pump implantation using a Siemens Acuson CV-70 equipped with a 13 MHz probe. Under 0.5% isoflurane to reduce agitation, standard M-mode, conventional and Tissue Doppler images were taken, and functional calculations were performed according to American Society of Echocardiography guidelines. MP1 was calculated as the ratio of the sum of isovolemic contraction and relaxation time to LV ejection time. […]
NADPH Oxidase activity. […] In brief, […] of ventricular protein extract was incubated with dihydroethidium (DHE, 10 μM), sperm DNA (1.25 μg/ml), and NADPH (50 μM) in PBS/DTPA (containing 100 μM DTPA), The assay was incubated at 37° C. in the dark for 30 min and the fluorescence was detected using excitation/emission of 490/580 nm.

neonatal cardiomyocytes = experiment: Mitosox flow cytometry of mitochondrial ROS in neonatal cardiomyocytes stimulated with Ang II; format: cell-based, mouse
Procedure: Neonatal mouse cardiomyocyte culture and flow cytometry. Ventricles from mouse neonates younger than 72 hours were dissected, minced, and enzymatically digested with Blendzyme 4 (45 μg/ml, Roche). After enzymatic digestion, cardiomyocytes were enriched using differential pre-plating for 2 hours, then seeded on fibronectin-coated culture dishes for 24 hours in DMEM (Gibco), with 20% Fetal Bovine Serum (Sigma) and 25 μM Arabinosylcytosine (Sigma). Cardiomyocytes were stimulated with Angiotensin II (1 μM) for 3 hours in serum-free DMEM containing 0.5% insulin transferrin-selenium (Sigma), 2 mM glutamine, and 1 mg/ml of BSA. Cardiomyocytes were simultaneously treated with either of the following: SS-31 (1 nM), N-acetyl cysteine (NAC: 0.5 mM), or PBS control. To measure mitochondrial superoxide concentration, Mitosox (5 μM) was incubated for 30 min at 37° C. to load cardiomyocytes, followed by 2 washes, with Hanks Balanced Salt Solution. Samples were analyzed using excitation/emission of 488/625 nm by flow cytometry. Flow data was analyzed using FCS Express (De Novo Software, Los Angeles, CA), and presented as histogram distributions of Mitosox fluorescence intensity.

C57BL6 mice [1] = experiment: Ang II-induced cardiomyopathy: echocardiography and heart weight after 4 weeks; format: in vivo, mouse; settings: for Ea/Aa / LVMI: 4 weeks Ang II 1.1 mg/kg/d with or without SS-31 3 mg/kg/d; for heart weight (normalized to tibia length): 4 weeks Ang II with or without SS-31, saline 5.3±0.18; for change in LV end diastolic diameter (LVEDD) / change in fractional shortening (FS, systolic function): in the presence or absence of SS-31
Procedure: (§2) Mouse experiments, drug delivery, echocardiography and blood pressure measurement. All animal experiments were approved by the University of Washington Institutional Animal Care and Use Committee. C57BL6 mice were housed in a barrier specific pathogen-free facility. Six to ten mice were included in each experimental group (Saline, Ang II, Ang II+SS-31, WT, Gαq, Gαq+SS-31). A pressor dose of Ang II (1.1 mg/kg/d) was continuously administered for 4 weeks using subcutaneous Alzet 1004 osmotic minipumps, with or without addition of SS-31 (3 mg/kg/d). Echocardiography was performed at baseline and after 4 weeks of pump implantation using a Siemens Acuson CV-70 equipped with a 13 MHz probe. Under 0.5% isoflurane to reduce agitation, standard M-mode, conventional and Tissue Doppler images were taken, and functional calculations were performed according to American Society of Echocardiography guidelines. MP1 was calculated as the ratio of the sum of isovolemic contraction and relaxation time to LV ejection time. An increase in MPI is an indication that a greater fraction of systole is spent to cope with the pressure changes during the isovolemic phases. As a reference for SS-31 peptide effect in Ang II treated mice, a genetic mouse model of Rosa-26 inducible-mCAT was included, in which mitochondrial catalase was overexpressed two weeks before Ang II treatment.

C57BL6 mice [2] = experiment: Quantitative pathology of ventricular fibrosis (Masson Trichrome) after 4 weeks of Ang II; format: in vivo, mouse
Procedure: as §1, with “time. An increase in MPI is an indication that a greater fraction of systole is spent to cope with the pressure changes during the isovolemic phases.” for “time.”
Quantitative Pathology. […] Quantitative analysis of fibrosis was performed by measuring the percentage of blue-staining fibrotic tissue relative to the total cross-sectional area of the ventricles.

[3] = system: cleaved caspase-3, phospho-p38 MAP kinase, p38; experiment: Western immunoblots of cardiac protein extracts after 4 weeks of Ang II; format: in vivo, mouse; settings: for phosphorylation of p38 MAPK: 4 weeks Ang II (vs. saline) or Ang II + SS-31 (vs. Ang II)
Procedure: as §2
Western Immunoblots. Cardiac protein extracts were prepared by homogenization in lysis buffer containing protease and phosphatase inhibitors on ice (1.5 mM KCl, 50 mM Tris HCl, 0.125% Sodium deoxycholate, 0.375% Triton X 100, 0.15% NP40, 3 mM EDTA). The samples were sonicated and centrifuged at 10,000 g for 15 min in 4° C. The supernatant was collected and the concentration was determined using a BCA assay (Pierce Thermo Scientific, Rockford, IL). Total protein (25 μg) was separated on NuPAGE 4-12% Bis-Tris gel (Invitrogen) and transferred to 0.45 μm PVDF membrane (Millipore), and then blocked in 5% non-fat dry milk in Tris-buffer solution with 0.1% Tween-20 for 1 hour. Primary antibodies were incubated overnight, and secondary antibodies were incubated for 1 hour. The primary antibodies included: rabbit monoclonal anti-cleaved caspase-3 (Cell Signaling), mouse monoclonal anti-GAPDH (Millipore), rabbit polyclonal phospho-p38 MAP kinase (Cell Signaling), and mouse monoclonal anti-p38 (Santa Cruz Biotechnology). The enhanced chemiluminescence method (Thermo Scientific) was used for detection. Image Quant ver.2.0 was used to quantified the relative band density as a ratio to GAPDH (internal control). All samples were normalized to the same cardiac protein sample.

[4] = system: mitochondrial protein carbonyl groups; experiment: Cardiac mitochondrial protein carbonyl ELISA after 4 weeks of Ang II; format: in vivo, mouse; settings: 4 weeks Ang II (vs. saline) or Ang II + SS-31 (vs. Ang II)
Procedure: as §2, with “treatment. […]” for “treatment.”

[5] = system: ANP, Collagen 1a2, PGC1-α, TFAM, NRF-1, NRF-2; experiment: Quantitative PCR of cardiac gene expression after 4 weeks of Ang II; format: in vivo, mouse; settings: for expression of PGC-1α and downstream target genes TFAM, NRF-1 and NRF-2: 4 weeks Ang II (vs. saline) or Ang II + SS-31 (vs. Ang II)
Procedure: as §2
(§3) Quantitative PCR. Gene expression was quantified by quantitative real time PCR using an Applied Biosystems 7900 themocycler with Taqman Gene Expression Assays on Demand, which included: PGC1-α (Mm00731216), TFAM (Mm00447485), NRF-1 (Mm00447996), NRF-2 (Mm00487471), Collagen 1a2 (Mm00483937), and ANP (Mm01255747). Expression assays were normalized to 18S RNA.

C57BL6 mice [6] = experiment: Blood pressure by intravascular telemetry after pressor dose of Ang II; format: in vivo, mouse
Procedure: as §2
Blood pressure was measured in a separate group of mice by telemetry using an intravascular catheter PA-C10 (DSI, MN), in which measurement was performed every three hours starting from 2 days before pump placement until 2 days after Ang pump placement.

mu-opioid receptor = mu-opioid receptor (Homo sapiens, UniProt P35372); experiment: mu-opioid receptor agonist activity (stated, no method); format: biochemical; settings: stated in the description, no test described
mu-opioid receptor, sequence (P35372 whole entry, species assumed): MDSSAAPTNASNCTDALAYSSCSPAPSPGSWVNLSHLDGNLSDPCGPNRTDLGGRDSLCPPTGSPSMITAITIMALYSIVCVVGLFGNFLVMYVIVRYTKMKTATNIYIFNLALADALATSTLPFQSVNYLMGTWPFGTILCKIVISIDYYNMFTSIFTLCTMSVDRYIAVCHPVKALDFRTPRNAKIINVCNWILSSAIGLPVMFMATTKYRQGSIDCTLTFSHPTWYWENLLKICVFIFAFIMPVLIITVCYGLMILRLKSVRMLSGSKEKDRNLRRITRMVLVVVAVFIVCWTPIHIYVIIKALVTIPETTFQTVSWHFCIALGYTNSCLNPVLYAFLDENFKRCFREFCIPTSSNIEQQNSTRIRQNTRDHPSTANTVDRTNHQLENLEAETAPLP

Gαq overexpressing mice = experiment: Gαq overexpression-induced heart failure: echocardiography, organ weights, fibrosis, qPCR, protein carbonyls; format: in vivo, mouse
Procedure: as §2
Quantitative Pathology. Ventricular tissues were cut into transverse slices, and subsequently embedded with paraffin, sectioned, and subjected to Masson Trichrome staining. Quantitative analysis of fibrosis was performed by measuring the percentage of blue-staining fibrotic tissue relative to the total cross-sectional area of the ventricles.
Measurement of mitochondrial protein carbonyl groups. For mitochondrial protein extraction, ventricular tissues were homogenized in mitochondrial isolation buffer (1 mM EGTA, 10 mM HEPES, 250 mM sucrose, 10 mM Tris-HCl, pH 7.4). The lysates were centrifuged for 7 min at 800 g in 4° C. The supernatants were then centrifuged for 30 min at 4000 g in 4° C. The crude mitochondria pellets were resuspended in small volume of mitochondrial isolation buffer, sonicated on ice to disrupt the membrane, and treated with 1% streptomycin sulfate to precipitate mitochondrial nucleic acids. The OxiSelect™ Protein Carbonyl ELISA Kit (Cell Biolabs) was used to analyze 1 μg of protein sample per assay. The ELISA was performed according to the instruction manual, with slight modification. Briefly, protein samples were reacted with dinitrophenylhydrazine (DNPH) and probed with anti-DNPH antibody, followed by HRP conjugated secondary antibody. The anti-DNPH antibody and HRP conjugated secondary antibody concentrations were 1:2500 and 1:4000, respectively.
as §3

[7] = Ang II 1.1 mg/kg/d subcutaneous pump, FIG. 2B
[8] = Ang+SS-31 (3 mg/kg/d) vs. Ang, 4 weeks
[9] = SS-31 3 mg/kg/d with Ang II, 4 weeks
[10] = Gαq mice, SS-31 3 mg/kg/d for 4 weeks

## Angiotensin II [Ang II]
NADPH oxidase
  cardiac NADPH oxidase activity: significantly increased
Neonatal cardiomyocytes; Ang II 1 μM, 3 hours, neonatal cardiomyocytes
  increase of Mitosox fluorescence (indicator of mitochondrial superoxide): approximately 2 fold
C57BL6 mice [1]
  Ea/Aa: 0.723±0.15
  LVMI: 6.32 ± 0.39 mg/g
  heart weight (normalized to tibia length): 7.69±0.20 mg/mm
C57BL6 mice [1]; 4 weeks of Ang II
  increase in heart weights above saline treated control hearts: 45%
  change in LV end diastolic diameter (LVEDD): no change
  change in fractional shortening (FS, systolic function): no change
C57BL6 mice [1]; 4 weeks of Ang II 1.1 mg/kg/d
  decline in Ea/Aa (diastolic function): ~35%
  increase in left ventricular mass index (LVMI) compared with baseline: approximately 2 fold
C57BL6 mice [2]; 4 weeks of Ang II
  increase in ventricular fibrosis (blue staining on trichrome): greater than 3 fold
[3]
  phosphorylation of p38 MAPK: increased
[3]; 4 weeks of Ang II
  increase in cleaved (activated) caspase-3 in left ventricular tissue: approximately 3 fold
[3]; 4 weeks of Ang II, FIG. 6C
  protein levels of p38 MAP kinase: increased
[4]
  ventricular mitochondrial protein carbonyl content: significantly increased
[5]
  expression of PGC-1α and downstream target genes TFAM, NRF-1 and NRF-2: induced the expression
[5]; 4 weeks of Ang II
  increase in ANP gene expression: ~15 fold
  increase in Coll1a2 gene expression: ~2.5 fold
C57BL6 mice [6]; Ang II 1.1 mg/kg/d
  increase in systolic and diastolic blood pressure above baseline: 25-28 mm Hg
C57BL6 mice [6]; [7]
  increase in diastolic pressure: 24.8 mm Hg
  increase in systolic blood pressure: 27.2 mm Hg
C57BL6 mice [6]; Ang II 1.1 mg/kg/d, baseline 94.5±3.5
  diastolic blood pressure after Ang II: 119.3±4.0 mm Hg

## D-Arg-2′,6′-Dmt-Lys-Phe-NH2 [SS-31]
NADPH oxidase
  cardiac NADPH oxidase activity: not changed
Neonatal cardiomyocytes; SS-31 1 nM or NAC 0.5 mM together with Ang II 1 μM for 3 hours
  effect on Ang II-induced Mitosox fluorescence / mitochondrial ROS: reduced Ang II-induced mitosox fluorescence to the level similar to that of saline treated cardiomyocytes
C57BL6 mice [1]
  Ea/Aa: 1.17±0.11
  LVMI: 4.21 ± 0.17 mg/g
  heart weight (normalized to tibia length): 6.05±0.135 mg/mm
C57BL6 mice [1]; 4 weeks of Ang II
  change in LV end diastolic diameter (LVEDD): not significantly changed
  change in fractional shortening (FS, systolic function): not significantly changed
C57BL6 mice [1]; [8]
  better preservation of Ea/Aa: 38%
  reduction of LVMI: 33%
C57BL6 mice [2]; [9]
  effect on Ang II-induced ventricular fibrosis: fully attenuated
mu-opioid receptor
  mu-opioid receptor agonist activity: does not have mu-opioid receptor agonist activity
[3]
  phosphorylation of p38 MAPK: significantly and nearly fully attenuated
[3]; [9]
  effect on activation of caspase-3 caused by Ang II: completely prevented
[4]
  ventricular mitochondrial protein carbonyl content: significantly reduced
[5]
  expression of PGC-1α and downstream target genes TFAM, NRF-1 and NRF-2: fully prevent the upregulation
[5]; [9]
  effect on Ang II-induced ANP gene expression: almost completely protected
  effect on Ang II-induced Coll1a2 gene expression: almost fully attenuated
Gαq overexpressing mice; Gαq mice at 16 weeks of age, SS-31 3 mg/kg/d for 4 weeks
  cardiac enlargement (normalized heart weight): substantially reduced
Gαq overexpressing mice; Gαq mice at 16 weeks of age, SS-31 3 mg/kg/d for 4 weeks, borderline significance p=0.09
  increase in lung weights (lung congestion): slightly attenuated
Gαq overexpressing mice; Gαq mice, 4 weeks of SS-31 treatment
  cardiac expression of Coll1a2 gene: not significantly altered
Gαq overexpressing mice; [10]
  Gαq overexpression-induced heart failure (phenotype overall): partially rescued
  cardiac mitochondrial protein carbonyls: significant reduction
  ventricular fibrosis: not changed
Gαq overexpressing mice; Gαq mice, SS-31 3 mg/kg/d from 12 to 16 weeks of age
  myocardial performance (MPI): improved
Gαq overexpressing mice; Gαq mice, SS-31 3 mg/kg/d from 12 to 16 weeks of age, vs. untreated Gαq
  systolic function (FS): significantly ameliorated
Gαq overexpressing mice; Gαq mice, SS-31 3 mg/kg/d from 12 to 16 weeks of age, borderline significance p=0.06
  Ea/Aa (diastolic function): better preserved
Gαq overexpressing mice; Gαq mice, SS-31 3 mg/kg/d from 12 to 16 weeks of age, p=0.08
  LV chamber enlargement: slightly reduced
C57BL6 mice [6]; SS-31 3 mg/kg/d simultaneously with Ang II 1.1 mg/kg/d
  effect on blood pressure: did not show any effect

## Tyr-D-Arg-Phe-Lys-NH2 [SS-01]
mu-opioid receptor
  mu-opioid receptor agonist activity: has mu-opioid receptor agonist activity
